Results: US9302999B2, “Substituted triazoles as herbicides” (E. I. DU PONT DE NEMOURS AND COMPANY, priority 2012, dated 2016)

Experiments:
Assay type in all cases: in vivo
[1] = tested on: goosegrass (Eleusine indica); assay: Test F pre-/postemergence: goosegrass; settings: Preemergence
From the text: (§1) Seeds of plant species selected from corn (Zea mays), soybean (Glycine max), velvetleaf (Abutilon theophrasti), lambsquarters (Chenopodium album), poinsettia, wild (wild poinsettia, Euphorbia heterophylla), pigweed, palmer (palmer pigweed, Amaranthus palmeri), waterhemp (common waterhemp, Amaranthus rudis), surinam grass (Brachiaria decumbens), crabgrass, Brazil (Brazilian crabgrass, Digitaria horizontalis), panicum, fall (fall panicum Panicum dichotomiflorum), crabgrass, large (large crabgrass, Digitaria sanguinalis), foxtail, giant (giant foxtail, Setaria faberii), foxtail, green (green foxtail Setaria viridis), goosegrass (Eleusine indica), ragweed (common ragweed, Ambrosia elatior), barnyardgrass (Echinochloa crus-galli), sandbur (southern sandbur, Cenchrus echinatus), arrowleaf sida (Sida rhombifolia), ryegrass, Italian (Italian ryegrass, Lolium multiflorum), dayflower, VA (Virginia (VA) dayflower, Commelina virginica), field bindweed (Convolvulus arvensis), cocklebur (common cocklebur, Xanthium strumarium), morningglory (Ipomoea coccinea), nightshade (eastern black nightshade, Solanum ptycanthum), kochia (Kochia scoparia), nutsedge, yellow (yellow nutsedge, Cyperus esculentus), johnsongrass (Sorghum halepense), smartweed (ladysthumb smartweed, Polygonum persicaria), and beggarticks (hairy beggarticks, Bidens pilosa), were planted into a silt loam soil and treated preemergence with test chemicals formulated in a non-phytotoxic solvent mixture which included a surfactant. At the same time, plants selected from these crop and weed species and also pigweed (Amaranthus retroflexus), waterhemp_RES1 (ALS/Triazine resistant common waterhemp, Amaranthus rudis) and waterhemp_RES2 (ALS/HPPD resistant common waterhemp, Amaranthus rudis) were planted in pots containing a planting medium comprising spaghnum peat moss, vermiculite, wetting agent and starter nutrients treated with postemergence applications of some of the test chemicals formulated in the same manner. Plants ranged in height from 2 to 18 cm for postemergence treatments (1- to 4-leaf stage).
(§2) Treated plants and controls were maintained in a greenhouse for 14 to 21 days, after which time all species were compared to controls and visually evaluated. Plant response ratings, summarized in Table E, are based on a scale of 0 to 100 where 0 is no effect and 100 is complete control. A dash (-) response means no test result.

[2] = tested on: velvetleaf (Abutilon theophrasti); assay: Test F pre-/postemergence: velvetleaf; settings: Preemergence
From the text: as §1, §2

[3] = tested on: pigweed, palmer (palmer pigweed, Amaranthus palmeri); assay: Test F pre-/postemergence: pigweed, palmer
From the text: as §1, §2

[4] = tested on: dayflower, VA (Virginia (VA) dayflower, Commelina virginica); assay: Test F pre-/postemergence: dayflower, VA
From the text: as §1, §2

[5] = tested on: field bindweed (Convolvulus arvensis); assay: Test F pre-/postemergence: field bindweed
From the text: as §1, §2

[6] = tested on: cocklebur (common cocklebur, Xanthium strumarium); assay: Test F pre-/postemergence: cocklebur; settings: Preemergence
From the text: as §1, §2

[7] = tested on: ragweed (common ragweed, Ambrosia elatior); assay: Test F pre-/postemergence: ragweed; settings: Preemergence
From the text: as §1, §2

[8] = tested on: foxtail, green (green foxtail Setaria viridis); assay: Test F pre-/postemergence: foxtail, green; settings: Preemergence
From the text: as §1, §2

[9] = 16 g ai/ha, scale 0 to 100, 0 no effect, 100 complete control
[10] = 31 g ai/ha, scale 0 to 100, 0 no effect, 100 complete control
[11] = Preemergence, 16 g ai/ha, scale 0 to 100, 0 no effect, 100 complete control
[12] = Preemergence, 31 g ai/ha, scale 0 to 100, 0 no effect, 100 complete control
[13] = Preemergence, 125 g ai/ha, scale 0 to 100
[14] = Preemergence, 250 g ai/ha, scale 0 to 100
[15] = Preemergence, 62 g ai/ha, scale 0 to 100
[16] = Postemergence, 250 g ai/ha, scale 0 to 100
[17] = Postemergence, 31 g ai/ha, scale 0 to 100
[18] = Postemergence, 125 g ai/ha, scale 0 to 100

Structure (SMILES)	Plant response rating, Goosegrass [1, 9]	Plant response rating, Goosegrass [1, 10]	Plant response rating, Goosegrass ([1]; 62 g ai/ha, scale 0 to 100)	Plant response rating, Goosegrass ([1]; 125 g ai/ha, scale 0 to 100)	Plant response rating, Goosegrass ([1]; 250 g ai/ha, scale 0 to 100)	Plant response rating, Velvetleaf [2, 10]	Plant response rating, Velvetleaf ([2]; 125 g ai/ha, scale 0 to 100)	Plant response rating, Velvetleaf ([2]; 250 g ai/ha, scale 0 to 100)	Plant response rating, Pigweed, Palmer [3, 12]	Plant response rating, Pigweed, Palmer [3, 13]	Plant response rating, Pigweed, Palmer [3, 14]	Plant response rating, Dayflower, VA [4, 12]	Plant response rating, Dayflower, VA [4, 13]	Plant response rating, Dayflower, VA [4, 14]	Plant response rating, Field Bindweed [5, 12]	Plant response rating, Field Bindweed [5, 13]	Plant response rating, Field Bindweed [5, 14]	Plant response rating, Foxtail, Green [8, 10]	Plant response rating, Foxtail, Green ([8]; 125 g ai/ha, scale 0 to 100)	Plant response rating, Foxtail, Green ([8]; 250 g ai/ha, scale 0 to 100)	also measured
CCc1nn(-c2ccc(F)cc2)nc1Cc1ccnc(C(F)(F)F)c1 [Compound 154]	10	95	95	100	100	20	40	100	100	100	100	0	70	90	0	35	95	75	100	100	Plant response rating, Velvetleaf [2, 9]: 0; Plant response rating, Pigweed, Palmer [3, 11]: 100; Plant response rating, Dayflower, VA [4, 11]: 0; Plant response rating, Dayflower, VA [4, 15]: 25; Plant response rating, Field Bindweed [5, 11]: 0; Plant response rating, Field Bindweed [5, 15]: 5; Plant response rating, Cocklebur [6, 9]: 0; Plant response rating, Cocklebur ([6]; 62 g ai/ha, scale 0 to 100): 0; Plant response rating, Cocklebur ([6]; 250 g ai/ha, scale 0 to 100): 0; Plant response rating, Ragweed [7, 9]: 0; Plant response rating, Ragweed [7, 10]: 0; Plant response rating, Ragweed ([7]; 125 g ai/ha, scale 0 to 100): 0; Plant response rating, Ragweed ([7]; 250 g ai/ha, scale 0 to 100): 40; Plant response rating, Foxtail, Green [8, 9]: 40; Plant response rating, Foxtail, Green ([8]; 62 g ai/ha, scale 0 to 100): 100
CCc1nn(-c2ccc(F)c(F)c2)nc1Oc1ccnc(C(F)(F)F)c1 [Compound 171]	70	80	100	100	100	0	15	50	0	100	100	0	30	30	0	5	5	50	100	100	Plant response rating, Velvetleaf [2, 9]: 0; Plant response rating, Pigweed, Palmer [3, 11]: 0; Plant response rating, Dayflower, VA [4, 11]: 0; Plant response rating, Dayflower, VA [4, 15]: 0; Plant response rating, Field Bindweed [5, 11]: 0; Plant response rating, Field Bindweed [5, 15]: 0; Plant response rating, Cocklebur [6, 9]: 0; Plant response rating, Cocklebur [6, 10]: 0; Plant response rating, Cocklebur ([6]; 62 g ai/ha, scale 0 to 100): 0; Plant response rating, Foxtail, Green [8, 9]: 20; Plant response rating, Foxtail, Green ([8]; 62 g ai/ha, scale 0 to 100): 95
CCCc1nn(-c2ccc(F)c(F)c2)nc1Oc1ccnc(C(F)(F)F)c1 [Compound 172]	–	98	–	100	100	0	80	100	100	100	100	40	70	90	5	95	95	75	100	100	Plant response rating, Pigweed, Palmer [3, 16]: 100; Plant response rating, Pigweed, Palmer [3, 17]: 100; Plant response rating, Pigweed, Palmer [3, 18]: 100; Plant response rating, Dayflower, VA [4, 16]: 50; Plant response rating, Dayflower, VA [4, 17]: 20; Plant response rating, Dayflower, VA [4, 18]: 30; Plant response rating, Field Bindweed [5, 16]: 60; Plant response rating, Field Bindweed [5, 17]: 25; Plant response rating, Field Bindweed [5, 18]: 60; Plant response rating, Cocklebur ([6]; 250 g ai/ha, scale 0 to 100): 5
